Source: US10947188B2, “Small molecule ferroptosis inducers” (THE TRUSTEES OF COLUMBIA UNIVERSITY IN THE CITY OF NEW YORK, priority 2016, dated 2021)

Tested on: HT-1080
Assay: Modulatory profiling: Alamar Blue viability, lethal compound cotreated with death modulator (EC50, AUC); on AUC HT.BHA: reference of the scale not given here; on AUC HT.EGTA: reference of the scale not given here
Assay type: cell-based
Set-up: AUC, modulator HT.3MA / AUC, modulator HT.ALLN / AUC HT.ATA / AUC HT.ActD / AUC HT.BHA / AUC HT.BHT / AUC HT.BocD / AUC HT.CHX / AUC HT.Co2+ / AUC HT.DPQ / AUC HT.EGTA / AUC HT.Lmim / AUC HT.NAD+ / AUC HT.Nec-1 / AUC HT.SP600125 / AUC HT.TLCK / AUC HT.U0126: unit not given beside the values
Conditions: for AUC HT.ATA: HT-1080, modulator ATA; for AUC HT.ActD: HT-1080, modulator ActD; for AUC HT.BHA: HT-1080, modulator BHA; for AUC HT.BHT: HT-1080, modulator BHT; for AUC HT.BocD: HT-1080, modulator BocD; for AUC HT.CHX: HT-1080, modulator CHX; for AUC HT.Co2+: HT-1080, modulator Co2+; for AUC HT.CspA: HT-1080, modulator CspA; for AUC HT.DPQ: HT-1080, modulator DPQ; for AUC HT.EGTA: HT-1080, modulator EGTA; for AUC HT.Gd3+: HT-1080, modulator Gd3+; for AUC HT.LNAME: HT-1080, modulator LNAME; for AUC HT.Lmim: HT-1080, modulator Lmim; for AUC HT.NAD+: HT-1080, modulator NAD+; for AUC HT.NMMA: HT-1080, modulator NMMA; for AUC HT.Nec-1: HT-1080, modulator Nec-1; for AUC HT.Pepstatin: HT-1080, modulator Pepstatin; for AUC HT.SP600125: HT-1080, modulator SP600125; for AUC HT.TLCK: HT-1080, modulator TLCK; for AUC HT.U0126: HT-1080, modulator U0126; for HT.atoc (AUC) / HT.bCarotene (AUC) / HT.deferox (AUC) / HT.digoxin (AUC) / HT.trolox (AUC) / HT.zVAD (AUC): HT-1080; for HT.atoc (AUC): modulator atoc; for HT.bCarotene (AUC): modulator bCarotene; for HT.deferox (AUC): modulator deferox; for HT.digoxin (AUC): modulator digoxin; for HT.trolox (AUC): modulator trolox; for HT.zVAD (AUC): modulator zVAD; for AUC, modulator HT.3MA / AUC, modulator HT.ALLN: HT-1080 cells, modulatory profile value (AUC); for AUC, modulator HT.3MA: lethal compound cotreated with modulator 3MA; for AUC, modulator HT.ALLN: lethal compound cotreated with modulator ALLN

Compound | AUC HT.ATA | AUC HT.ActD | AUC HT.BHA | AUC HT.BHT | AUC HT.BocD | AUC HT.CHX | AUC HT.Co2+ | AUC HT.CspA | AUC HT.DPQ | AUC HT.EGTA | AUC HT.Gd3+ | AUC HT.LNAME | AUC HT.Lmim | AUC HT.NAD+ | AUC HT.NMMA | AUC HT.Nec-1 | AUC HT.Pepstatin | AUC HT.SP600125 | AUC HT.TLCK | AUC HT.U0126 | other results
CC(C)C[C@H](NC(=O)[C@H](Cc1ccccc1)NC(=O)c1cnccn1)B(O)O [Bortezomib] | 0.0541 | −0.07229 | −0.04985 | −0.131 | 0.02874 | 0.02631 | 0.06445 | −0.2224 | 0.01079 | −0.006629 | −0.02823 | 0.009924 | 0.01347 | 0.139 | 0.01354 | −0.06186 | −8.033E−05 | −0.03028 | 0.07195 | −0.03187 | HT.atoc (AUC): 0.007023; HT.bCarotene (AUC): −0.01914; HT.deferox (AUC): −0.01672; HT.digoxin (AUC): 0.07916; HT.trolox (AUC): −0.004183; HT.zVAD (AUC): 0.01074; AUC, modulator HT.3MA: −0.07171; AUC, modulator HT.ALLN: −0.08587
COc1ccccc1/C=C/C1(C(=O)NC2CCCC2)CC(=O)N1c1ccc(F)cc1 (stereo not shown) [CIL1] | −0.0478 | −0.04057 | 0.02691 | −0.0849 | −0.01644 | 0.09163 | 0.2048 | −0.04542 | 0.04203 | −0.006602 | −0.03215 | 0.03977 | 0.08631 | 0.07889 | −0.0482 | 0.02294 | 0.001474 | −0.04919 | 0.04647 | 0.1491 | HT.atoc (AUC): 0.216; HT.bCarotene (AUC): −0.02846; HT.deferox (AUC): 0.08359; HT.digoxin (AUC): −0.003809; HT.trolox (AUC): 0.02477; HT.zVAD (AUC): −0.0551; AUC, modulator HT.3MA: −0.001968; AUC, modulator HT.ALLN: 0.1053
CC1=CC(C)(C)Nc2ccc(OC(=O)c3ccco3)cc21 [CIL2] | 0.03084 | −0.005228 | −0.03767 | −0.1327 | 0.1395 | 0.1414 | −0.132 | 0.01224 | −0.003125 | −0.005627 | −0.02304 | 0.02625 | −0.03013 | 0.04925 | −0.03029 | −0.01273 | 0.008816 | −0.003684 | 0.02037 | 0.02089 | HT.atoc (AUC): 0.04757; HT.bCarotene (AUC): −0.02687; HT.deferox (AUC): 0.02963; HT.digoxin (AUC): −0.01222; HT.trolox (AUC): −0.03094; HT.zVAD (AUC): −0.02828; AUC, modulator HT.3MA: 0.07178; AUC, modulator HT.ALLN: 0.05292
CC1CC(C)(C)Nc2ccc(OC(=O)c3ccco3)cc21 (stereo not shown) [CIL4] | 0.02806 | −0.001463 | −0.00931 | −0.02212 | 0.1272 | 0.1096 | −0.144 | −0.04696 | 0.007359 | 0.01533 | −0.009953 | 0.01005 | −0.01928 | −0.01381 | −0.007501 | 0.002499 | 0.00928 | −0.006297 | 0.0172 | 0.0005624 | HT.atoc (AUC): 0.02362; HT.bCarotene (AUC): 0.001026; HT.deferox (AUC): −3.785E−05; HT.digoxin (AUC): −0.02389; HT.trolox (AUC): −0.0201; HT.zVAD (AUC): 0.0146; AUC, modulator HT.3MA: 0.02219; AUC, modulator HT.ALLN: 0.02482
COc1ccc(Nc2ccc3c(c2)=NC2(CCCCC2)[N+]=3[O-])cc1 [CIL9] | −0.003144 | −0.064 | −0.04477 | −0.1803 | −0.02376 | 0.07227 | 0.01754 | −0.03079 | −0.003317 | −0.006848 | −0.04358 | 0.02124 | −0.05469 | 0.02617 | −0.03733 | 0.02133 | −0.002188 | 0.01016 | 0.005514 | 0.03915 | HT.atoc (AUC): 0.05157; HT.bCarotene (AUC): −0.006502; HT.deferox (AUC): 0.05678; HT.digoxin (AUC): −0.01984; HT.trolox (AUC): −0.03599; HT.zVAD (AUC): −0.00166; AUC, modulator HT.3MA: 0.04492; AUC, modulator HT.ALLN: −0.02077
CC(C)(C)C1CCc2c(sc(NC(=O)CN3CCNCC3)c2C(N)=O)C1 (stereo not shown) [CIL10] | 0.01743 | −0.01865 | −0.02863 | −0.08663 | 0.1385 | 0.05132 | 0.1226 | 0.004872 | 0.004305 | −0.007776 | −0.02788 | 0.02616 | −0.02065 | 0.04087 | −0.009286 | 0.03698 | −0.01087 | −0.009227 | −0.001631 | 0.01126 | HT.atoc (AUC): 0.1034; HT.bCarotene (AUC): −0.01201; HT.deferox (AUC): −0.004319; HT.digoxin (AUC): 0.01443; HT.trolox (AUC): −0.006674; HT.zVAD (AUC): −0.01286; AUC, modulator HT.3MA: −0.01982; AUC, modulator HT.ALLN: 0.1067
O=C1C(Cl)=C(N2CCOCC2)C(=O)C(Cl)=C1N1CCOCC1 [CIL11] | 0.0148 | −0.0343 | −0.01902 | −0.09641 | 0.07911 | 0.007052 | 0.05358 | −0.005498 | 0.003904 | 0.004002 | −0.0298 | 0.02954 | −0.034 | 0.02582 | −0.02554 | 0.01983 | −0.003096 | −0.02876 | 0.01902 | 0.06089 | HT.atoc (AUC): 0.07926; HT.bCarotene (AUC): −0.01827; HT.deferox (AUC): 0.0278; HT.digoxin (AUC): −0.01376; HT.trolox (AUC): −0.02115; HT.zVAD (AUC): −0.002495; AUC, modulator HT.3MA: 0.0001144; AUC, modulator HT.ALLN: 0.01794
